Test results as given in US6765022B2, “Cyclohexylamine derivatives as subtype selective nmda receptor antagonists” (Warner-Lambert Company, priority 2000, dated 2004).
Counter-ions that a name gives are not always drawn.

Key:
[1] = molecular target: T1, [3H]ifenprodil binding, adult rat forebrain membranes (NMDA receptor) (Rattus norvegicus, UniProt P35439+Q00960); test: [3H]Ifenprodil binding assay; conditions: 4 nM [3H]-ifenprodil, 2 hours at room temperature, pH 7.4
T1 construct: membrane fraction was prepared from frozen adult rat forebrains; tissue Zivic-Miller Laboratories, Inc; host or cells: adult rat forebrain, buffy coat membrane fraction
Description: All buffers and reagents used in assay incubations or to dissolve drugs were prepared using water purified through a Milli-Q reverse osmosis system (Millipore Corp, Bedford, Mass.) and treated with UV emissions. Prior to use in the assays, buffers were further filtered through a sterile Corning filtration unit (Corning Glass Works, Corning, N.Y.) containing a 0.2-μm filter. Buffer used to rinse the membranes on the assay filters was prepared with purified water, but was not refiltered and was stored no longer than 5 days. Stock solutions of the drugs (usually 10 mM) were dissolved in 20 mM HEPES-KOH buffer pH 7.4 (assay buffer) with the addition of 1 to 5 μL of glacial AcOH, if needed, to keep them in solution. For eliprodil the stock solution was buffer with the addition of 10% DMSO. All subsequent dilutions from stock were made in buffer.
An extensively washed buffy coat membrane fraction was prepared from frozen adult rat forebrains (Zivic-Miller Laboratories, Inc, Zelienople, Pa.) as described previously (Coughenour L. L.; Cordon, J. J., J. Pharmacol. Exp. Ther., 1997;280:584-592) and stored at −80° C. On the day of the assay, pellets were resuspended in 35 mL of assay buffer at pH 7.4 using a Polytron setting 6. After incubation at 37° C. for 30 minutes in a shaking water bath, the homogenate was centrifuged 40,000×g for 10 minutes at 4° C. The pellets were resuspended in fresh buffer and centrifuged 3 more times before final suspension for use in the assay.
[^3H]Ifenprodil Binding. […] The filter mat was supported on a cold (−20° C.) teflon support, and filters from individual wells were separated and placed in Mini Poly-Q vials (Beckman Instruments Inc, Fullerton, Calif.) and filled with 4 mL of scintillation cocktail (Beckman Ready Protein^+). Radioactivity retained on the filter was determined by liquid scintillation spectrophotometry. […]
Data Analysis. Binding curves were statistically analyzed for a best one- or two-site competition fit using GraphPad Prism software (GraphPad Software Inc, San Diego, Calif.). […]

[2] = molecular target: T2, NR1A/NR2B (Rattus norvegicus, UniProt P35439+Q00960); test: Electrophysiological assay at NMDA receptor subunits expressed in Xenopus oocytes (two-electrode voltage clamp); format: cell-based; conditions: cloned rat NR1A/NR2B in Xenopus oocytes; currents activated by glutamate (100 μM) and glycine (1-100 μM); read-out: NR1A/NR2B Oocyte IC50
T2 construct: expressed in transfected cells; host or cells: Xenopus laevis oocytes injected with cRNA
Source text: Preparation of RNA. cDNA clones encoding the NR1A, NR2A, NR2B, and NR2C rat NMDA receptor subtypes were used. (See Moriyoshi et al., Nature, (Lond.), 1991;354:31-37); Kutsuwada et al., Nature (Lond.), 1992;358:36-41; Monyer et al., Science (Washington, D.C.), 1992;256:1217-1221; Ikeda et al., FEBS Lett., 1992;313:34-38; Ishii et al., J. Biol. Chem., 1993;268:2836-2843 for details of these clones or their mouse homologs.) The clones were transformed into appropriate host bacteria, and plasmid preparations were made with conventional DNA purification techniques. A sample of each clone was linearized by restriction enzyme digestion […] was synthesized with T3 RNA polymerase. The cRNA was diluted to 400 ng/μL and stored in 1-μL aliquots at −80° C. until injection.
The Xenopus Oocyte Expression System. […]
Electrical recordings were made using a conventional two-electrode voltage clamp (Dagan TEV-200) over periods ranging between 3 to 21 days following injection (Woodward et al., Mol. Pharmacol., 1992;41:89-103). […] Inhibitory potency of the novel antagonists was assessed on responses elicited by fixed concentrations of glutamate and glycine, by measuring reductions in current induced by progressively increasing concentrations of antagonist. […]

T1 sequence (Q00960 27-1482, other chains not shown): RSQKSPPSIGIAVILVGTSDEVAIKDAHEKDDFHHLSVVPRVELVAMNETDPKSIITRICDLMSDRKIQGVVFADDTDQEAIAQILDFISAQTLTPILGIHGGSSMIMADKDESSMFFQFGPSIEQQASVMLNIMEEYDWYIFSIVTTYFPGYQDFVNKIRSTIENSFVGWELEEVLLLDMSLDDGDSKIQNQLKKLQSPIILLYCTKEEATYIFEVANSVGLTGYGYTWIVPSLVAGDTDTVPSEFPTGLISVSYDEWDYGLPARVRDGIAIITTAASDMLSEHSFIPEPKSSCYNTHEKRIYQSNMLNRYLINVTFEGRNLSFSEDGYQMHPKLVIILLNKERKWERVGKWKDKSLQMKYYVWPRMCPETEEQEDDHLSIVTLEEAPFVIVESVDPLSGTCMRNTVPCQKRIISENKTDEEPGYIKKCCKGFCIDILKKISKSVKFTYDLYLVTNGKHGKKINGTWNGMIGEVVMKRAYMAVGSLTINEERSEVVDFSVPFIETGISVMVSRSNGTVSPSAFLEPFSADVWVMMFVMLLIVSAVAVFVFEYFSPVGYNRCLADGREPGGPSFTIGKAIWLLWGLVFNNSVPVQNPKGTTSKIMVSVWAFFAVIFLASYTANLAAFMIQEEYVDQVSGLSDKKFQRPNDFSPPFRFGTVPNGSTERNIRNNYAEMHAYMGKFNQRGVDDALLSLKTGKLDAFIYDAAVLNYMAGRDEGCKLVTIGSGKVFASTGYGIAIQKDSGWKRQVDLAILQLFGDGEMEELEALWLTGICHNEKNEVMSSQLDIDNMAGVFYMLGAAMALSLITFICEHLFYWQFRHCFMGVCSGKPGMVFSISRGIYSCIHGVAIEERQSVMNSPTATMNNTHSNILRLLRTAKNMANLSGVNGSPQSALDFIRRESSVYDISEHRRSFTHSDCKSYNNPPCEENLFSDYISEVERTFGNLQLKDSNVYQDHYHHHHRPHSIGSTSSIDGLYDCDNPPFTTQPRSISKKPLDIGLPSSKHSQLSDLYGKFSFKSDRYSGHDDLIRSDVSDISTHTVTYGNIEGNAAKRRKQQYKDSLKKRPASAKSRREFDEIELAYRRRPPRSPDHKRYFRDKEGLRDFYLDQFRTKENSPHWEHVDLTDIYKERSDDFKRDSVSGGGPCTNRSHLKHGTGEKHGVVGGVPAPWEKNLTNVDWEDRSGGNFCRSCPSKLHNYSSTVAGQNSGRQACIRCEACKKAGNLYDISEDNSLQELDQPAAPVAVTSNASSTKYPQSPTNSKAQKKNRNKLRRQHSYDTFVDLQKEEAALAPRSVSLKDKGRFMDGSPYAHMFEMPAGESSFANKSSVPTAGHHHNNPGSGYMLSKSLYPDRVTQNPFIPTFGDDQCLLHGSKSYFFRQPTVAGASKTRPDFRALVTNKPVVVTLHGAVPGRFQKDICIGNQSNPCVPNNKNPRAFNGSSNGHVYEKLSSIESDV
T2 sequence (Q00960 27-1482, other chains not shown): as above

Compound	melting point [°C]	IC50 [1] [nM]	IC50 [2] [nM]
Oc1ccc(CCCN[C@H]2CC[C@H](c3ccccc3)CC2)cc1 [Example 1b, trans4-[3-(4-Phenylcyclohexylamino)propyl]phenol]	211 to 214	84	–
C[C@H](N[C@H]1CC[C@H](c2ccccc2)CC1)[C@@H](O)c1ccc(O)cc1 [Example 2a, trans 4-[(1S,2S)-1-Hydroxy-2-(4-phenylcyclohexylamino)propyl]phenol]	–	1300	–
C[C@H](N[C@H]1CC[C@@H](c2ccccc2)CC1)[C@@H](O)c1ccc(O)cc1 [Example 2b, cis-4-[(1S,2S)-1-Hydroxy-2-(4-phenylcyclohexylamino)propyl]phenol]	–	45	150

Continued, in another order:

melting point [°C]	Compound	IC50 [1] [nM]	IC50 [2] [nM]
238 to 241	Oc1ccc(CCN[C@H]2CC[C@H](c3ccccc3)CC2)cc1 (as salt: HCl) [Example 5, trans-4-[2-(4-Phenylcyclohexylamino)ethyl]phenol]	–	–
97 to 105	CN(CCc1ccc(O)cc1)[C@H]1CC[C@H](c2ccccc2)CC1 (as salt: HCl) [Example 6, trans 4-{2-[Methyl(4-phenylcyclohexyl)amino]ethyl}phenol]	–	–
249 to 255	CN(CCCc1ccc(O)cc1)[C@H]1CC[C@H](c2ccccc2)CC1 (as salt: HCl) [Example 4, trans-4-{3-[Methyl-(4-phenylcyclohexyl)amino]propyl}phenol]	–	–
